Test results taken from patent US20060035920A1, “Chk-1 inhibitors” (Millennium Pharmaceuticals, Inc., priority 2004, published 2006).

Molecular target: T1, Recombinant human Chk1 (GST-Chk1) (Homo sapiens, UniProt O14757)
T1 construct: made in house; host or cells: insect cells (baculovirus, Bac-to-Bac system)
T1 sequence (O14757 1-476): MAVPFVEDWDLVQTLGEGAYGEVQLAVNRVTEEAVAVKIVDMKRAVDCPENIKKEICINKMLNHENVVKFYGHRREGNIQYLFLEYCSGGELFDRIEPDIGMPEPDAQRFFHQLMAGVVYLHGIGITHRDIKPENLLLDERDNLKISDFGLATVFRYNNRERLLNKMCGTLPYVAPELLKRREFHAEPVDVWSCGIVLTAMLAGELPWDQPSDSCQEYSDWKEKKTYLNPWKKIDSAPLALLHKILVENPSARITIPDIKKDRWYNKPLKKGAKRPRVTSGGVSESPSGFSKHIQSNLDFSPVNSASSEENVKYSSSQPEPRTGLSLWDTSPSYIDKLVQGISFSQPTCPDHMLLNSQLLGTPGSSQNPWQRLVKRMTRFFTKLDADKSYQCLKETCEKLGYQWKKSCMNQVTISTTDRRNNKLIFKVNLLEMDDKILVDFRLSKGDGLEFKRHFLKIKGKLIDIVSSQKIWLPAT
Test: Chk1 DELFIA Kinase Assay
Format: biochemical
Conditions: GST-Chk1 in vitro kinase assay, bound given in μM
Experimental: Recombinant human Chk1 was expressed as a fusion protein with glutathione S-transferase at the amino-terminus (GST-Chk1) using standard baculovirus vectors and (Bac-to-Bac®) insect cell expression system purchased from GIBCO™ Invitrogen. Recombinant protein expressed in insect cells was purified using glutathione sepharose (Amersham Biotech) using standard procedures described by the manufacturer.
Chk1 DELFIA® Kinase Assay:
Assays (25 μL) utilized 2 nM GST-Chk1 containing 10 mM Tris, pH 7.5, 20% glycerol, 50 mM sodium chloride (NaCl), 0.01% Surfact-Amps® 20, 1 μM peptide stubstrate (Biotin-GLYRSPSMPEN-amide) (SEQ ID NO: 2), 01.% BSA, 2 mM DTT, 4% DMSO, 600 μM ATP, 10 mM MgCl2 and reacted for 50 minutes at room temperature. Reactions were terminated with 100 μL of Stop buffer containing 1% BSA, 10 mM Tris, pH 8.0, 150 mM NaCl, 100 mM EDTA. Stopped reactions (100 μL) were transferred to 96 well NeutrAvidin plates (Pierce) to capture the biotin-peptide substrate during a 30 minute room temperature incubation. Wells were washed and reacted with 100 μL PerkinElmer Wallac Assay Buffer containing 21.5 ng/ml anti-phospho-Ser216-Cdc25c rabbit polyclonal antibody from Cell Signaling Technology (Beverly, Mass.) and 292 ng/ml europium labeled anti-rabbit-IgG for 1 hour at room temperature. Wells were washed and europium released from the bound antibody by addition of Enhancement Solution (100 μL) (PerkinElmer Wallac) and detected using a Perkin Elmer Wallac Envison™ 2100 multilabel reader using standard manufacturer settings.

SMILES | IC50 [µM]
CCn1c(=O)c2c(C)[nH]nc2c2cc(CCCN3CCCC3)ccc21 [Compound I-54, 5-ethyl-3-methyl-8-(3-pyrrolidin-1-ylpropyl)-2,5-dihydro-4H-pyrazolo[4,3-c]quinolin-4-one] | < 1
CCn1c(=O)c2c(C)[nH]nc2c2cc(-c3cn[nH]c3)ccc21 [Compound I-52, 5-ethyl-3-methyl-8-(1H-pyrazol-4-yl)-2,5-dihydro-4H-pyrazolo[4,3-c]quinolin-4-one] | < 1
CCn1c(=O)c2c(C)[nH]nc2c2ccc(CCCN3CCCC3)cc21 [Compound I-42, 5-ethyl-3-methyl-7-(3-pyrrolidin-1-ylpropyl)-2,5-dihydro-4H-pyrazolo[4,3-c]quinolin-4-one] | < 1

Same assay, conditions: GST-Chk1 kinase assay, bound given in nM

SMILES | IC50 [µM]
CCn1c(=O)c2c(C)[nH]nc2c2cc(C#CCN3[C@H](C)CC[C@H]3C)ccc21 (racemic) [Compound I-2, 8-{3-[(2S,5S)-2,5-dimethylpyrrolidin-1-yl]prop-1-yn-1-yl}-5-ethyl-3-methyl-2,5-dihydro-4H-pyrazolo[4,3-c]quinolin-4-one] | < 0.5
Cc1[nH]nc2c1c(=O)[nH]c1ccc(C#CCN3CCCC3)cc12 [Compound I-13, 3-methyl-8-(3-pyrrolidin-1-ylprop-1-yn-1-yl)-2,5-dihydro-4H-pyrazolo[4,3-c]quinolin-4-one] | < 0.5
CCn1c(=O)c2c(C)[nH]nc2c2cc(CCCN3CCCC3)ccc21 [Compound I-54, 5-ethyl-3-methyl-8-(3-pyrrolidin-1-ylpropyl)-2,5-dihydro-4H-pyrazolo[4,3-c]quinolin-4-one] | > 0.5
Cc1[nH]nc2c1c(=O)n(C)c1ccc(C#CCN)cc21 [Compound I-23, 8-(3-aminoprop-1-yn-1-yl)-3,5-dimethyl-2,5-dihydro-4H-pyrazolo[4,3-c]quinolin-4-one] | < 0.5
Cc1[nH]nc2c1c(=O)n(CC1CC1)c1ccc(C#CCN3CCCC3)cc21 [Compound I-6, 5-(cyclopropylmethyl)-3-methyl-8-(3-pyrrolidin-1-ylprop-1-yn-1-yl)-2,5-dihydro-4H-pyrazolo[4,3-c]quinolin-4-one] | < 0.5
CCn1c(=O)c2c(C)[nH]nc2c2cc(C#CCN3CCN(C)CC3)ccc21 [Compound I-8, 5-ethyl-3-methyl-8-[3-(4-methylpiperazin-1-yl)prop-1-yn-1-yl]-2,5-dihydro-4H-pyrazolo[4,3-c]quinolin-4-one] | < 0.5
CCn1c(=O)c2c(C)[nH]nc2c2cc(/C=C/CN3[C@@H](C)CC[C@@H]3C)ccc21 (racemic) [Compound I-40, 8-{(1E)-3-[(2S,5S)-2,5-dimethylpyrrolidin-1-yl]prop-1-en-1-yl}-5-ethyl-3-methyl-2,5-dihydro-4H-pyrazolo[4,3-c]quinolin-4-one] | < 0.5
Cc1[nH]nc2c1c(=O)n(C)c1ccc(C#CCN3CCCC3)cc21 [Compound I-12, 3,5-dimethyl-8-(3-pyrrolidin-1-ylprop-1-yn-1-yl)-2,5-dihydro-4H-pyrazolo[4,3-c]quinolin-4-one] | < 0.5
CCn1c(=O)c2c(C)[nH]nc2c2cc(C#CCN3[C@H](C)CCC[C@@H]3C)ccc21 [Compound I-37, 8-{3-[(2R,6S)-2,6-dimethylpiperidin-1-yl]prop-1-yn-1-yl}-5-ethyl-3-methyl-2,5-dihydro-4H-pyrazolo[4,3-c]quinolin-4-one] | < 0.5
Cc1[nH]nc2c1c(=O)n(CCF)c1ccc(C#CCN3CCCC3)cc21 [Compound I-10, 5-(2-fluoroethyl)-3-methyl-8-(3-pyrrolidin-1-ylprop-1-yn-1-yl)-2,5-dihydro-4H-pyrazolo[4,3-c]quinolin-4-one] | < 0.5
CCn1c(=O)c2c(C)[nH]nc2c2cc(C#CC(C)(C)N)ccc21 [Compound I-15, 8-(3-amino-3-methylbut-1-yn-1-yl)-5-ethyl-3-methyl-2,5-dihydro-4H-pyrazolo[4,3-c]quinolin-4-one] | < 0.5
CCn1c(=O)c2c(C)[nH]nc2c2cc(-c3cn[nH]c3)ccc21 [Compound I-52, 5-ethyl-3-methyl-8-(1H-pyrazol-4-yl)-2,5-dihydro-4H-pyrazolo[4,3-c]quinolin-4-one] | > 0.5
CCCn1c(=O)c2c(C)[nH]nc2c2cc(C#CCN3CCCC3)ccc21 [Compound I-19, 3-methyl-5-propyl-8-(3-pyrrolidin-1-ylprop-1-yn-1-yl)-2,5-dihydro-4H-pyrazolo[4,3-c]quinolin-4-one] | < 0.5
CCn1c(=O)c2c(C)[nH]nc2c2cc(/C=C/CN3[C@H](C)CC[C@@H]3C)ccc21 [Compound I-41, 8-{(1E)-3-[(2R,5S)-2,5-dimethylpyrrolidin-1-yl]prop-1-en-1-yl}-5-ethyl-3-methyl-2,5-dihydro-4H-pyrazolo[4,3-c]quinolin-4-one] | < 0.5
CCn1c(=O)c2c(C)[nH]nc2c2cc(C#CCN3[C@H](C)CC[C@@H]3C)ccc21 [Compound I-3, 8-{3-[(2R,5S)-2,5-dimethylpyrrolidin-1-yl]prop-1-yn-1-yl}-5-ethyl-3-methyl-2,5-dihydro-4H-pyrazolo[4,3-c]quinolin-4-one] | < 0.5
Cc1[nH]nc2c1c(=O)n(CC(F)F)c1ccc(C#CCN3CCCC3)cc21 [Compound I-4, 5-(2,2-difluoroethyl)-3-methyl-8-(3-pyrrolidin-1-ylprop-1-yn-1-yl)-2,5-dihydro-4H-pyrazolo[4,3-c]quinolin-4-one] | < 0.5
CCn1c(=O)c2c(C)[nH]nc2c2cc(-c3ccc(CN(C)C)s3)ccc21 [Compound I-50, 8-{5-[(dimethylamino)methyl]-2-thienyl}-5-ethyl-3-methyl-2,5-dihydro-4H-pyrazolo[4,3-c]quinolin-4-one] | < 0.5
CCN(CC)CCc1ccc(-c2ccc3c(c2)c2n[nH]c(C)c2c(=O)n3CC)s1 [Compound I-82, 8-{5-[2-(diethylamino)ethyl]-2-thienyl}-5-ethyl-3-methyl-2,5-dihydro-4H-pyrazolo[4,3-c]quinolin-4-one] | < 0.5
CCn1c(=O)c2c(C)[nH]nc2c2cc(C#CCN(C(C)C)C(C)C)ccc21 [Compound I-36, 8-[3-(diisopropylamino)prop-1-yn-1-yl]-5-ethyl-3-methyl-2,5-dihydro-4H-pyrazolo[4,3-c]quinolin-4-one] | < 0.5
CCn1c(=O)c2c(C)[nH]nc2c2ccc(CCCN3CCCC3)cc21 [Compound I-42, 5-ethyl-3-methyl-7-(3-pyrrolidin-1-ylpropyl)-2,5-dihydro-4H-pyrazolo[4,3-c]quinolin-4-one] | > 0.5
CCn1c(=O)c2c(C)[nH]nc2c2cc(C#CCN3CCCCC3)ccc21 [Compound I-9, 5-ethyl-3-methyl-8-(3-piperidin-1-ylprop-1-yn-1-yl)-2,5-dihydro-4H-pyrazolo[4,3-c]quinolin-4-one] | < 0.5
CCn1c(=O)c2c(C)[nH]nc2c2cc(/C=C/CN(C)Cc3ccccc3)ccc21 [Compound I-45, 8-{(1E)-3-[benzyl(methyl)amino]prop-1-en-1-yl}-5-ethyl-3-methyl-2,5-dihydro-4H-pyrazolo[4,3-c]quinolin-4-one] | < 0.5
CCn1c(=O)c2c(C)[nH]nc2c2cc(C#CC(C)(C)NC(C)(C)C)ccc21 [Compound I-39, 8-[3-(tert-butylamino)-3-methylbut-1-yn-1-yl]-5-ethyl-3-methyl-2,5-dihydro-4H-pyrazolo[4,3-c]quinolin-4-one] | < 0.5
CCn1c(=O)c2c(C)[nH]nc2c2cc(-c3ccc(CN4CC[C@H](O)C4)s3)ccc21 [Compound I-83, 5-ethyl-8-(5-{[(3S)-3-hydroxypyrrolidin-1-yl]methyl}-2-thienyl)-3-methyl-2,5-dihydro-4H-pyrazolo[4,3-c]quinolin-4-one] | < 0.5
Cc1[nH]nc2c1c(=O)n(CCCO)c1ccc(C#CCN3CCCC3)cc21 [Compound I-18, 5-(3-hydroxypropyl)-3-methyl-8-(3-pyrrolidin-1-ylprop-1-yn-1-yl)-2,5-dihydro-4H-pyrazolo[4,3-c]quinolin-4-one] | < 0.5
CCN(CC)Cc1ccc(-c2ccc3c(c2)c2n[nH]c(C)c2c(=O)n3CC)s1 [Compound I-46, 8-{5-[(diethylamino)methyl]-2-thienyl}-5-ethyl-3-methyl-2,5-dihydro-4H-pyrazolo[4,3-c]quinolin-4-one] | < 0.5
